The test system of data set [1] is mice. As to the kind of experiment: Horizontal wire test (muscle relaxation). The data set is classed as in vivo, mice (male CF1). The procedure: (d) Horizontal Wire Test: It consisted of an horizontally strung wire (1 mm diameter, 15 cm long), placed at 20 cm from the table. Mice were lifted by the tail, allowed to grasp the wire with their forepaws and released. […] After two trials, performed at 5 min. intervals, the test took place. A myorelaxant drug, like diazepam at high doses, will impair the ability of mice to grasp the wire. Generally, this state of muscle relaxation is commonly associated with sedation.
(§1) All the injections were given intraperitoneally (i.p.). […] Testing was carried out `blind`. All data were submitted to analysis of variance (ANOVA).
The test took place after two trials, executed after a 5 min interval.

The next data set deals with benzodiazepine receptors. Conditions: Medina et al. 1990; cited from earlier work.
The conditions of data set [2]: Medina et al. 1990; cited from earlier work.
The test system of data set [3] is mice. As to the kind of experiment: Elevated plus maze (anxiety). Conditions: for Total arm entries: 5 min test, mean ± S.E.M. The data set is classed as in vivo, mice (male CF1). The procedure:
(a) Elevated Plus Maze: consisted of 4 perpendicularly disposed wood arms (20×5 cm; two had 35 cm high wood walls, and two were open) linked by a central 10×10 cm square. The maze was suspended 50 cm from the room floor. Animals were placed on the central part of the maze facing a closed arm. This test has been widely validated to measure anxiety in rodents. The number of entries into and the time spent in the open and closed arms were counted during 5 min. […] Total exploratory activity (number of entries in both arms) was also determined.
as §1

Data set [4] has as its system mice. As to the kind of experiment: Holeboard test (exploratory activity, sedation). The data set is classed as in vivo, mice (male CF1). The method, then:
(b) Holeboard Test: consisted of a wood box (60×60×30 cm) with four 2 cm diameter holes equidistant in the floor. The number of head-dips and the time spent head-dipping were counted during 5 min. An increase in the number and the time spent head-dipping implies a greater exploratory activity.
as §1

Data set [5] relates to locus coeruleus noradrenaline. The data set can be described thus: Noradrenaline levels in locus coeruleus after immobilization stress. The note with it: 1 mg/kg i.p., 30 min before 90-min stress session. The data set is classed as in vivo, rats. The procedure:
Rats were submitted to a 90-minute immobilization stress session in a plastic cylinder. The locus coeruleus was dissected out after killing by decapitation and noradrenaline assessed by HPLC with electrochemical detection. Doses were 1 mg/kg for each substance, injected i.p., 30 minutes before the stress session.

A further data set relates to benzodiazepine receptor. The data set can be described thus: Competitive inhibition of 3H-flunitrazepam binding to benzodiazepine receptor (cerebral cortical membranes). Details: species or system bovine. The method, then:
(Competitive inhibition of H^3 -flunitrazepam to benzodiazepine receptor)
Binding of 3H-flunitrazepam (0.7 nM) to the benzodiazepine receptor was carried out in extensively washed cerebral cortical membranes.
H^3 -flunitrazepam has a Ki of […] to the benzodiazepine receptor.
IC50 values were obtained using flavonoids at different concentrations (10^-10 to 10^-3 M).
Structure - activity relationships of several flavonoids on
the ^3 H Flunitrazepam binding to bovine brain membranes.

Data set [6] concerns mice. As to the kind of experiment: Locomotor activity test (OPTO-VARIMEX). The note with it: 0.6-1 mg/kg i.p., 20 min after injection. The procedure:
Male CF1 mice from our breeding stock weighing 28-35 g were used. The animals were placed in groups of 10-12 with free access to water and food, and maintained on a 12 h/12 h day-night cycle.
Diazepam (DZ; Hoffman-La Roche) and the flavonoids were dissolved in DMSO 40%, NaOH 0.1N (7:3: v/v) at pH 8.2 Control animals were injected with the same vehicle (VEH). RO 15-1788 (Hoffmann-La Roche) was suspended in DMSO 10%, propyleneglycol 10% in distilled water.
(c) Locomotor Activity Test: we used an OPTO-VARIMEX apparatus consisting of a glass box (36×15×20 cm) and two lateral bars with 15 light beams (0.32 cm diameter, beam spacing 2.65 cm). The apparatus detects automatically all the mouse movements, and discriminates between total and ambulatory activity. The locomotor activity (number of movements across the beams) was counted during 5 min. An increase in the number of transitions through the beams reflects an augmented locomotor activity.
The general procedure for all the tests is as follows: mice were injected with vehicle or the drug solution 20 min before the beginning of the test and put into another home cage. Ro 15-1788, a specific BZD receptor antagonist was injected 10 min before the tested drug. All the injections were given intraperitoneally (i.p.). Control mice were tested in each session, in parallel with those animals receiving the test drug or diazepam. Testing was carried out `blind`. All data were submitted to analysis of variance (ANOVA). Post-hoc comparisons between individual treatments and controls were made using Dunnett's t-test.
FIGS. 15, 16, 17 and 18 show ambulatory locomoter activity counts during a 5 min. test session in an OPTO-Varimex apparatus, 20 min. after i.p. injection with a mixture of brominated flavones (0.6,1,3 mg/kg), FIG. 15; 2' chlorinated chrysin (1,3 mg/kg); FIG. 16; 2' fluorinated chrysin (3 mg/kg), FIG. 17; 6,8 dibromoflavone, FIG. 18. Data are expressed as medians (interquartile range) of (n) number of animals.

The mark [7] stands for this setting: 1 mg/kg i.p., 20 min after injection.

Read-outs that look alike come from different tables or passages of the source.

Usually IC50 stands for the concentration that inhibits the measured activity by half. Take `O=c1cc(-c2ccccc2)oc2cc(O)cc(O)c12` [chrysin, 5,7-dihydroxyflavone]: in the data set on mice [1] (0.6-30 mg/kg i.p.), the “Effect in horizontal wire test / muscle relaxant effect” value is “ineffective in the same test and produced no muscle relaxant effect”. Further, in the data set on mice [1] (i.p.), the “Muscle relaxation (summary)” value is listed as “did not exhibit sedation or muscle relaxation”. Moreover, in the data set with benzodiazepine receptors, the “Binding properties for benzodiazepine receptors” value was “binding properties for benzodiazepine receptors”. Further, the Anticonvulsant properties entry in data set [2] is “anticonvulsant properties”. In the data set with mice [3] (setting [7]), the “Percentage of entries in the open arms” value is listed as “increase in both parameters (p<0.01)”. In addition, the “Percentage of the time spent on the open arms” value with mice [3] (setting [7]) was “increase in both parameters (p<0.01)”. The Total arm entries in the data set with mice [3] (setting [7]) was 9.9 ± 0.8; in the data set with mice [3] (3 mg/kg i.p., 20 min after injection), 8.7 ± 1.1; in the data set on mice [3] (10 mg/kg i.p., 20 min after injection) it was 10.2 ± 1.1. Also, the “Total arm entries, with and without RO 15-1788” value in the data set with mice [3] (chrysin 1 mg/kg, RO 15-1788 3 mg/kg, F (2,49)=3.18) was “No significant differences were found”. The “Anxiolytic effect in the elevated plus maze” value in the data set with mice [3] (i.p.) is recorded as “had anxiolytic effects”; in the data set with mice [3] (i.p., listed as CHRY), “displayed an anxiolytic effect”. Also, the “Total arm entries, difference from controls” value with mice [3] (i.p., doses of Table I) was “No differences were observed”. Also, the Time spent head-dipping result with mice [4] (3 mg/kg i.p.) was “significant increase in the time spent head-dipping”. Besides, in the data set on mice [4] (10 mg/kg i.p.), the Sedative effects entry is on record as “did not elicit sedative effects”. Further, the “Sedation (summary)” value in the data set on mice [4] (i.p.) is given as “did not exhibit sedation”. Also, in data set [5], the “Noradrenaline decrease in locus coeruleus provoked by immobilization stress” value is on record as “dampened the noradrenaline decrease”. The “Potency vs diazepam on stress-provoked noradrenaline decrease” value in data set [5] is “almost equipotent with diazepam”. For the same compound, the “Benzodiazepine ligand behaviour / affinity relative to 3H-flunitrazepam” value with benzodiazepine receptor is reported as “benzodiazepine ligand behaviour similar to that of ^3 H-flunitrazepam”. The IC50 on benzodiazepine receptor (3H-flunitrazepam 0.7 nM, read-out: IC50 at the benzodiazepine receptor) was 700 to 3000 nM; at benzodiazepine receptor (bovine brain membranes, 0.7 nM 3H-flunitrazepam, read-out: 3H Flunitrazepam binding IC50), 2000 nM. In addition, the Locomotor activity result with mice [6] is listed as “significant increase in locomotor activity”.

Source of the values: patent publication US5756538A, “Flavonoid and biflavonoid derivatives, their pharmaceutical compositions, their anxiolytic activity” (University of Strathclyde, priority 1993, dated 1998).
